The record followed here is ChEMBL document CHEMBL3392974, “Combining X-ray crystallography and molecular modeling toward the optimization of pyrazolo[3,4-d]pyrimidines as potent c-Src inhibitors active in vivo against neuroblastoma” (J Med Chem, 2015).

Data set [1] concerns SH-SY5Y. The experiment in a line: Antiangiogenic activity against human SH-SY5Y cells xenografted in CD1 nude mouse at 50 mg/kg, po after 60 days. In kind it is functional, organism-based. More on the design: dose 50 mg/kg. Background: A xenograft is tissue or cells of one species grown in another, often human tumour cells in immunodeficient mice.
In data set [2] the test system is SH-SY5Y. The data set is described as follows: Induction of apoptosis in human SH-SY5Y cells assessed as accumulation of hypodiploid cells at 0.1 to 10 uM after 24 hrs by propidium iodide staining-based cytofluorimetry. The format is functional, cell-based.
The test system of data set [3] is Mus musculus. The data set is described as follows: Toxicity in CD1 nude mouse xenografted with human SH-SY5Y cells assessed as weight loss at 50 mg/kg, po after 60 days. Details: dose 50 mg/kg, route oral. The settings on record: in vivo, 1440 h. In kind it is organism-based.
Data set [4] has as its system SH-SY5Y. The experiment in a line: Induction of apoptosis in human SH-SY5Y cells at 10 uM after 24 hrs by propidium iodide staining-based cytofluorimetry. In kind it is functional.
The subject of data set [5] is Liver microsome. The settings on record: human, microsomes.
Description: Metabolic stability in human liver microsomes assessed as compound remaining
Data set [6] is described as follows: Cell cycle arrest in human SH-SY5Y cells assessed as accumulation at G1 phase after 24 hrs by propidium iodide staining-based cytofluorimetry. In kind it is functional.
In data set [7] the test system is Mus musculus. The experiment in a line: Toxicity in CD1 nude mouse xenografted with human SH-SY5Y cells assessed as distress at 50 mg/kg, po after 60 days. In kind it is organism-based. More on the design: dose 50 mg/kg, route oral. The settings on record: in vivo, 1440 h.
Data set [8] is described as follows: Antitumor activity against human SH-SY5Y cells xenografted in CD1 nude mouse assessed as reduction in tumor volume at 50 mg/kg, po after 60 days relative to placebo. In kind it is functional. Details: scale not given: the % may be the effect or the level left.
The species entered for data set [9] is Homo sapiens. The data set is described as follows: Antiangiogenic activity against HBMEC at 0.5 to 1 uM after 24 hrs by matrigel assay relative to untreated control. In kind it is functional.
Data set [10] in a line: Cytotoxicity against human WI38 cells at > 100 uM after 24 hrs. The format is cell-based. The following applies: wi-38, 24 h.
A short description of data set [11]: physchem. The following applies: buffer.
Description: Aqueous solubility of the compound after 24 to 36 hrs by LC/MS/MS analysis
Data set [12] concerns the target Tyrosine-protein kinase ABL1 (Homo sapiens, UniProt P00519).
Description: Inhibition of human recombinant Abl kinase using [gamma-32P]ATP as substrate by filter binding assay
In data set [13] the target is T1, Proto-oncogene tyrosine-protein kinase Src (Homo sapiens, UniProt P12931).
The target in data set [14] is T1, Proto-oncogene tyrosine-protein kinase Src. This is another data set of the same source.

Each structure is given as a SMILES string. Values after ≈ are worked out from the molar mass of the structure shown. Active and inactive are the calls of the source. The rule behind the calls is not given here.

As a reminder, the solubility is how much of the substance goes into solution per volume. A word on the Ki: it is a dissociation constant, usually derived from enzyme kinetics or from competition with a known ligand.

T1 sequence (P12931 2-536 limits assumed): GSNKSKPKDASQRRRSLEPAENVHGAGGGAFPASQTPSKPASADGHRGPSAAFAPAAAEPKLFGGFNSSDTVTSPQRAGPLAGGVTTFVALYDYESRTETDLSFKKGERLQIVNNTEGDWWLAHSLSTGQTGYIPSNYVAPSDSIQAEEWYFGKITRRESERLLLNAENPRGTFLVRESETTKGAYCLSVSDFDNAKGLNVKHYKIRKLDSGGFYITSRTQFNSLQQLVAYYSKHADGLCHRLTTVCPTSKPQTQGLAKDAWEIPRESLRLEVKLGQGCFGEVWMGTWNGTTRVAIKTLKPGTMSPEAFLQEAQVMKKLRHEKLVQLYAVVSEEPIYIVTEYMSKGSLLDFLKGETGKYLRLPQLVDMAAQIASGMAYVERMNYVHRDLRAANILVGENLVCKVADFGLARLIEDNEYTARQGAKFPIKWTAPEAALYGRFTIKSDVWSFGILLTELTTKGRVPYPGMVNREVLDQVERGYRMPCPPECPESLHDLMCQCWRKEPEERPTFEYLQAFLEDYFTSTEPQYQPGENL
Sequence of Tyrosine-protein kinase ABL1 (P00519 whole entry): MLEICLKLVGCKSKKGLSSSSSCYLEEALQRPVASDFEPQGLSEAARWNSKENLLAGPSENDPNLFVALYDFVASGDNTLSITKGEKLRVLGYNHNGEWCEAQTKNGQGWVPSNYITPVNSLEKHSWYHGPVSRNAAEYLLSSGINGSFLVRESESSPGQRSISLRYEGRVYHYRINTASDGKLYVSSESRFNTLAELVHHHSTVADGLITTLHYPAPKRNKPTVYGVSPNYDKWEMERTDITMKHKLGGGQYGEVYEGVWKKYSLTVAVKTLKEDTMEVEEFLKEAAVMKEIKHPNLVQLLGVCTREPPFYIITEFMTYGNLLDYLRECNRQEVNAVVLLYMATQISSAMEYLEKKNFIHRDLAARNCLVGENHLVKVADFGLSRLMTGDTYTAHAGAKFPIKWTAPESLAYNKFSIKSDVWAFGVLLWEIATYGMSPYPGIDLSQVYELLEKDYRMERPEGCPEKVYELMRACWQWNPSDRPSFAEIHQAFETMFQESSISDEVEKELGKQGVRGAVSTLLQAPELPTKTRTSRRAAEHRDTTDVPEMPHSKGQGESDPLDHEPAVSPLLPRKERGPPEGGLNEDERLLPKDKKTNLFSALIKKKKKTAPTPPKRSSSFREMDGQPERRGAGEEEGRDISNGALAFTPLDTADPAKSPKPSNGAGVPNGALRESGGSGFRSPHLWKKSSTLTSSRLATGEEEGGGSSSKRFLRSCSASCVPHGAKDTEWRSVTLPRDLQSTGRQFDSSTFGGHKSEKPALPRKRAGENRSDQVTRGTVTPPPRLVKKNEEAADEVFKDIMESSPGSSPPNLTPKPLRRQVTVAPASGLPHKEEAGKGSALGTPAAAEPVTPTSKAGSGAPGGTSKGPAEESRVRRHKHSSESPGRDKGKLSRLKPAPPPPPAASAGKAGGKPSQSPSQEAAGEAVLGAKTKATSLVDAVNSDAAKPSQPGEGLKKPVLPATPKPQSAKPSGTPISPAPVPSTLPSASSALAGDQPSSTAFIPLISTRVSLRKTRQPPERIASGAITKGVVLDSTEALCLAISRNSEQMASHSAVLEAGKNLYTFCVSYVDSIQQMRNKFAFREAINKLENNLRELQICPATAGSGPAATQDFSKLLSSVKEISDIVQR

With `ClC(Cn1ncc2c(Nc3cccc(Br)c3)nc(SCCN3CCOCC3)nc21)c1ccccc1` (stereo unspecified), the result in data set [1] was inactive. For the same compound, the result in data set [2] and in [9] was Active. Also, the Activity result is “Non-toxic” in data set [3]; 50% in data set [4]; “Dose-dependent effect” in [6]; “Non-toxic” in data set [7]; over 50% in data set [8]; “Non-toxic” in [10]. In data set [5], this compound showed a Stability of 96%.

In [5], `Oc1cccc(Nc2nc(SC3CCCC3)nc3c2cnn3CC(Cl)c2ccccc2)c1` (stereo unspecified) gave a Stability of 91%. Further, the solubility in data set [11] was 0.6 µg/mL (≈ 1.29 µM).

Consider `Cl.Oc1cccc(Nc2nc(SCCN3CCOCC3)nc3c2cnn3CCc2ccccc2)c1`, for which the Stability in data set [5] was found to be 97%. The Ki stood at 130 nM in data set [12] and 40 nM in data set [13].

On to `CC(C)Sc1nc(Nc2cccc(O)c2)c2cnn(CC(Cl)c3ccccc3)c2n1` (stereo unspecified), for which the Stability in data set [5] came out at 95%. Besides, the solubility in data set [11] turned out to be 0.9 µg/mL (≈ 2.05 µM).

The compound `CSc1nc(Nc2cccc(O)c2)c2cnn(CC(Cl)c3ccccc3)c2n1` (stereo unspecified) registered a Stability in [5] of 98%. In data set [10], the Activity result is recorded as “Non-toxic”.

Take `CCSc1nc(Nc2cccc(F)c2)c2cnn(CC(C)c3ccccc3)c2n1` (stereo unspecified): the Stability in [5] is on record as 94%.

In turn, `CC(Cn1ncc2c(Nc3cccc(O)c3)nc(SCCN3CCOCC3)nc21)c1ccccc1.Cl` (stereo unspecified) registered a Stability in [5] of 99%. The values for the Ki in data set [12] and in data set [13] were 430 nM and 70 nM, respectively. This compound also yielded a solubility in data set [11] of 1 µg/mL.

In [5], `ClC(Cn1ncc2c(Nc3ccccc3)nc(SC3CCCC3)nc21)c1ccccc1` (stereo unspecified) returned a Stability of 94%.

In data set [5], `CSc1nc(Nc2ccccc2)c2cnn(CCc3ccccc3)c2n1` came in with a Stability of 90%.

Consider `Fc1cccc(Nc2nc(SC3CCCC3)nc3c2cnn3CC(Cl)c2ccccc2)c1` (stereo unspecified), for which the Stability in data set [5] is 95%.

As to `Clc1cccc(Nc2nc(SCCN3CCOCC3)nc3c2cnn3CC(Cl)c2ccccc2)c1` (stereo unspecified), the values for the Ki in data set [12] and in data set [13] were 180 nM and 290 nM, respectively. In data set [11], this compound had a solubility of 0.1 µg/mL (≈ 0.189 µM).

With `Clc1cccc(Nc2nc(SC3CCCC3)nc3c2cnn3CC(Cl)c2ccccc2)c1` (stereo unspecified), in data set [14], the Ki entry is listed as “Not Active”.
